Results on one compound are retold here after ChEMBL document CHEMBL5726298, “Heteroaryl-pyrimidinone compounds as PDE2 inhibitors” (2019).

For this assay, the target named is T1, GMP-stimulated 3',5'-cyclic nucleotide phosphodiesterase (Macaca mulatta, UniProt B3VTJ2).
T1 sequence (B3VTJ2 whole entry): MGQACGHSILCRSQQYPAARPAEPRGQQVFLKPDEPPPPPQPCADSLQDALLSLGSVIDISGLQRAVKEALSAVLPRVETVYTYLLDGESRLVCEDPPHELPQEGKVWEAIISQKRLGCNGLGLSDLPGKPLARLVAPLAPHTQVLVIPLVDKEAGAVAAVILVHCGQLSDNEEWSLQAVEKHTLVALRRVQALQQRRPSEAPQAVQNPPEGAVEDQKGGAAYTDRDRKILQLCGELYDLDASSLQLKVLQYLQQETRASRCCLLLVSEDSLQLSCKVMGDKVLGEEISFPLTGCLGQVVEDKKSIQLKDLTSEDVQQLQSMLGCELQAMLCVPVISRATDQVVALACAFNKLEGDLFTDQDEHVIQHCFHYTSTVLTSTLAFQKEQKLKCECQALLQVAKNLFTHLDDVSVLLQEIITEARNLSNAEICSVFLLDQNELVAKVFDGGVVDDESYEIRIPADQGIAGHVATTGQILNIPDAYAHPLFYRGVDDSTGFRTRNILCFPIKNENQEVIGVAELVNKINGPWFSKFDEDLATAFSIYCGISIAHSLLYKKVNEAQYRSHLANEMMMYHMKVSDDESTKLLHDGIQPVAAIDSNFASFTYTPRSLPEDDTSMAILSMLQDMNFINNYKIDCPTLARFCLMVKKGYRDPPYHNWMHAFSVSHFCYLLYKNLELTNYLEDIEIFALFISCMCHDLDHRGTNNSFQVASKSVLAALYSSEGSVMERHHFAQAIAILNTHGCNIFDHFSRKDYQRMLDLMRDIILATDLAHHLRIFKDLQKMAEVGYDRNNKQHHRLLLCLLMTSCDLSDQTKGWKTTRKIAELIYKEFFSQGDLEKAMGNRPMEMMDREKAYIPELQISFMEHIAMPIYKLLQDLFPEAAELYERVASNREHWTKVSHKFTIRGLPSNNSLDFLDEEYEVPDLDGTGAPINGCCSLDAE
Briefly: PDE2A3 assay: The activity of the compounds in accordance with the present invention as PDE2 inhibitors may be readily determined using a fluorescence polarization (FP) methodology (Huang, W., et al., J. Biomol Screen, 2002, 7: 215). […] Done in Lab A for rhPDE2A3.

As usually defined, the Ki is a dissociation constant, usually derived from enzyme kinetics or from competition with a known ligand. Lower therefore signals a stronger hold on the target.

For the compound `Cc1nc(-c2csc(C(C)c3ccc(C(F)(F)F)cc3)n2)cc(=O)[nH]1` (stereo unspecified), affinity was put at a Ki of 1.24 µM.
